{"source": "patent US9789102B2", "about": "“H3 receptor antagonist for use in the treatment of alzheimer's disease” (SANOFI, priority 2012, dated 2017)", "key": {"[1]": {"tested_on": "protein tau hyperphosphorylation on AT-8 (pSer199-202/Thr205) epitope", "assay": "AT8 immunohistochemistry with quantitative image analysis after six months in food", "assay_type": "in vivo, THY-Tau22 mice", "conditions": "for protein tau phosphorylation on AT-8 epitope in cortex, vs vehicle: n=9; for decrease of the number of AT8-positive neuronal cells, cortex: significant", "from_the_text": "2-(Cyclohexylmethyl)-N-{2-[(2S)-1-methylpyrrolidin-2-yl]ethyl}-1,2,3,4-tetrahydroisoquinoline-7-sulfonamide difumarate monohydrate was administrated as a supplement in food at doses of 0.00034%, 0.0034% and 0.034% for six months in THY-Tau22 and wild type mice as follows: • Tg Veh (n=17) • Tg Active Ingredient—0.034% (n=17) • Tg Active Ingredient—0.0034% (n=17) • Tg Active Ingredient—0.00034% (n=17) • WT Veh (n=17) • WT Active Ingredient—0.034% (n=17) • WT Active Ingredient—0.0034% (n=17) • WT Active Ingredient—0.00034% (n=17) • WT groups treated with Active Ingredient are not used in the biochemical and histological studies.\nAfter mice were decapitated, brains were removed and one hemibrain (used for histopathological studies) was immersion-postfixed for seven days at 4° C. with 4% formaldehyde (Carlo Erba/code 415691). The other hemibrain was prepared for biochemical quantitative measurements.\nPost-fixed hemibrains were incubated in phosphate-buffered saline (PBS, P 3813-10PAK, Sigma), transferred to a 20% sucrose solution (code 27480.294—Prolabo) for 48 hours at 4° C. to ensure good cryopreservation of tissues during subsequent freezing. For freezing, hemibrains were immersed for one minute in isopentane solution (Ref. No. 24872-323—Prolabo) cooled with dry ice to between −25° C. and −30° C. and then stored at −25° C.\nThe entire hemibrains were cut with a cryostat (Microm, HM560). Serial sagittal brain tissue sections were collected onto Superfrost plus microscope glass slides (VWR) and then stored at −20° C. (sections of 20 μm of thickness), or placed in PBS-sodium azide 0.1% (S-2002, Sigma) containing wells to avoid any contamination and stored at 4° C. (sections of 30 μm of thickness).\nHyperphosphorylated microtubule-associated protein tau is the major component of the paired helical filament. Phosphorylation-dependent anti-tau antibodies can be used to identify specific amino acids that are phosphorylated in tau from normal brain and AD brain. For example, the monoclonal antibody, AT8, is widely used. Antibody that can detect the phosphorylated serine 202 and the phosphorylated threonine 205 epitopes of phosphorylated tau (AT8 epitope (M. Goedert et al., Neuroscience Letters, (1995) 189, 3, pp. 167-169)).\nAn immunohistochemical protocol using the AT8 antibody and based upon the avidin-biotin horseradish peroxidase method was applied on 30 μm free-floating sections. The detailed protocol is as follows:\nThe following reagents are used: 0.1M PBS buffer in 1 liter of H2O (2.23 g of NaH2PO4, 2H2O (Prolabo Ref. No. 33 616.262), 29 g of Na2HPO4, 12 H2O (Prolabo Ref. No. 28 028.298), 9 g of NaCl (Prolabo Ref. No. 27 810.295)); PBS-Triton (0.15%) buffer Triton×100 (Sigma Ref. No. 23 479-9) (PBS-T) (1 l of 0.1M PBS buffer, 1.5 ml of Triton); 0.2M PBS buffer in 1 liter of H2O (4.46 g of NaH2PO4, 2H2O, 58 g of Na2HPO4, 12H2O, 18 g of NaCl); 30% H2O2 (Sigma Ref. No. H 1009); 3,3′-diaminobenzidine tetrahydrochloride (Sigma Ref. No. D9015, 100 mg stored at −20° C.); Vectastain® ABC Kit (Ref. No. PK 4000, Vector); BSA: bovine serum albumin (Sigma Ref. No. A8022).\nSections were preincubated for 3×10 minutes in 0.1 M-PBS-0.15% triton solution and then in 0.1M-PBS-1.5% hydrogen peroxide-50% methanol at room temperature for 30 minutes. After 3 washings in 0.1 M-PBS-0.15% triton, they were further incubated in blocking buffer [i.e., in BSA diluted at 10% in 0.01 M PBS] for 30 minutes. They were incubated at room temperature overnight with mouse anti-human PHF-Tau monoclonal antibody (clone AT8, Thermo Science, MN1020, dilution 1/500 in 0.1M PBS-0.05% Triton) and then with the secondary antibody (anti-mouse IgG biotinylated whole antibody from goat, Amersham, RPN1177, dilution 1/500 in 0.1M PBS-0.05% Triton) for 1 h 30. They were finally incubated in peroxidase-coupled avidin complex (Vectastain ABC kit, Vector Laboratories, dilution 1/400 in 0.1M PBS) for 30 minutes. […]"}, "[2]": {"tested_on": "protein tau phosphorylation at AD-2 epitope", "assay": "Western blot of tau phosphorylation at AD-2 epitope after single administration (Example 1)", "assay_type": "in vivo", "conditions": "THY-Tau22 mice", "procedure": "For immunoblot analysis, frozen mouse tissues (either hippocampus or cortex) were homogenized using a Precellys 24 tissue homogenizer in 350 μl RIPA buffer from Cell Signaling (20 mM Tris-HCl (pH 7.5), 150 mM NaCl, 1 mM Na2 EDTA, 1 mM EGTA, 1% NP-40, 1% sodium deoxycholate, 2.5 mM sodium pyrophosphate, 1 mM beta-glycerophosphate, 1 mM Na3VO4, 1 μg/ml leupeptin) to which proteases inhibitors (Sigma cocktail 1% v/v) and phosphatases inhibitors (okadaic acid 1 μM, sodium fluoride 100 mM) were added. After centrifugation, 16000×g 4° C. for 10 minutes, protein content in supernatants was determined with BioRad DC Protein Assay kit, using BSA as a standard. […] Tau protein was detected using the following mouse antibody: AD-2 1/20.000^e (Biorad, 56484) which recognizes tau protein phosphorylated on Ser396 and Ser404. […]\nFollowing incubation with primary antibodies, blots were rinsed in TBS Tween 0.1% and incubated for 1 hour at room temperature in an anti-mouse IgG horseradish peroxidase (HRP)-linked secondary antibody 1/10,000^e (GE healthcare, NA9310) diluted in 5% non-fat dry milk in TBS Tween 0.1%. […] Quantification of immunoreactive signal was performed using Multigauge V3.0 software (FUJIFILM). […]"}}, "data": [{"smiles": "CN1CCC[C@H]1CCNS(=O)(=O)c1ccc2c(c1)CN(CC1CCCCC1)CC2", "note": "[2-(cyclohexylmethyl)-N-{2-[(2S)-1-methylpyrrolidin-2-yl]ethyl}-1,2,3,4-tetrahydroisoquinoline-7-sulfonamide difumarate monohydrate]", "values": [{"measurement": "protein tau phosphorylation on AT-8 epitope in cortex, vs vehicle", "setting": "[1]; 0.0034% in food, six months", "value": "statistical significant decrease"}, {"measurement": "intensity of AT8-immunostaining within neuronal cell bodies and fibers, cortex", "setting": "[1]; 0.0034% in food, six months, qualitatively observed", "value": "decrease"}, {"measurement": "decrease of the number of AT8-positive neuronal cells, cortex", "setting": "[1]; 0.0034% in food, six months", "value": "−47", "unit": "%"}, {"measurement": "protein tau phosphorylation on AT-8 epitope in cortex, vs vehicle", "setting": "[1]; 0.034% in food, six months", "value": "statistical significant decrease"}, {"measurement": "decrease of the number of AT8-positive neuronal cells, cortex", "setting": "[1]; 0.034% in food, six months", "value": "−32", "unit": "%"}, {"measurement": "AT8-positive neuronal cell number in other ROIs (amygdala, CA1 and dentate gyrus hippocampal subareas)", "setting": "[1]; six months in food", "value": "No significant decrease"}, {"measurement": "effect on protein tau phosphorylation at AD-2 epitope in the cortex", "setting": "[2]; 3 mg/kg per os", "value": "did not elicit any effect"}, {"measurement": "effect on protein tau phosphorylation at AD-2 epitope in the cortex", "setting": "[2]; 10 mg/kg per os", "value": "did not elicit any effect"}]}]}
